Assay results from the supplement of paper PMC10307832.

Columns and labels:
Assay in all cases: relative viability (nuclei count vs DMSO), 5 days (fraction); higher = more cells survive
Shikonin + Tozasertib = compound: CC(C)=CC[C@@H](O)C1=CC(=O)c2c(O)ccc(O)c2C1=O [Shikonin] + Cc1cc(Nc2cc(N3CCN(C)CC3)nc(Sc3ccc(NC(=O)C4CC4)cc3)n2)n[nH]1 [Tozasertib] (partner 0.1 µM)
Outline: (§1)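 One day after seeding in 1536-well plates, lung cancer cell lines were dosed by pin tool. Dosing was either single-drug or a fixed anchor-drug dose plus five library-drug doses (not always all listed) in √10 steps. After 5 days, nuclei were stained in one fix-and-stain step and counted on 4× images, and relative viability is the nuclei count of treated wells over that of vehicle wells, given as the median of duplicate plates.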

[1] = compound: CC(C)N(CCCNC(=O)Nc1ccc(C(C)(C)C)cc1)C[C@H]1O[C@@H](n2ccc3c(N)ncnc32)[C@H](O)[C@@H]1O + CC1(C)CCC(c2ccc(Cl)cc2)=C(CN2CCN(c3ccc(C(=O)NS(=O)(=O)c4ccc(N[C@H](CCN5CCOCC5)CSc5ccccc5)c(S(=O)(=O)C(F)(F)F)c4)cc3)CC2)C1 [Navitoclax] (partner 0.5 µM)
Outline: as §1

[2] = compound: CC(C)N(CCCNC(=O)Nc1ccc(C(C)(C)C)cc1)C[C@H]1O[C@@H](n2ccc3c(N)ncnc32)[C@H](O)[C@@H]1O + C[C@@H](Oc1cc(-c2cnn(C3CCNCC3)c2)cnc1N)c1c(Cl)ccc(F)c1Cl [Crizotinib] (partner 1 µM)
Outline: as §1

[3] = compound: CC(C)N(CCCNC(=O)Nc1ccc(C(C)(C)C)cc1)C[C@H]1O[C@@H](n2ccc3c(N)ncnc32)[C@H](O)[C@@H]1O + Nc1nc2[nH]cc(CCc3ccc(C(=O)N[C@@H](CCC(=O)O)C(=O)O)cc3)c2c(=O)[nH]1 [Pemetrexed] (partner 0.2 µM)
Outline: as §1

| Cell Line | relative viability (Shikonin + Tozasertib; first compound 0.01 µM) | relative viability (Shikonin + Tozasertib; first compound 0.1 µM) | relative viability (Shikonin + Tozasertib; first compound 0.3162 µM) | relative viability (Shikonin + Tozasertib; first compound 1 µM) | relative viability ([1]; first compound 0.08 µM) | relative viability ([1]; first compound 0.253 µM) | relative viability ([1]; first compound 0.8 µM) | relative viability ([1]; first compound 2.53 µM) | relative viability ([1]; first compound 8 µM) | relative viability ([2]; first compound 0.08 µM) | relative viability ([2]; first compound 0.253 µM) | relative viability ([2]; first compound 0.8 µM) | relative viability ([2]; first compound 2.53 µM) | relative viability ([2]; first compound 8 µM) | relative viability ([3]; first compound 0.08 µM) | relative viability ([3]; first compound 0.253 µM) | relative viability ([3]; first compound 0.8 µM) | relative viability ([3]; first compound 2.53 µM) | relative viability ([3]; first compound 8 µM) |
| --- | --- | --- | --- | --- | --- | --- | --- | --- | --- | --- | --- | --- | --- | --- | --- | --- | --- | --- | --- |
| BEN | 0.508 | 0.507 | 0.51 | 0.52 | 0.0864 | 0.0543 | 0.0608 | 0.0499 | 0.0778 | 0.836 | 0.768 | 0.825 | 0.715 | 0.921 | 0.705 | 0.646 | 0.762 | 0.694 | 0.72 |
| NCI-H1666 | 0.622 | 0.636 | 0.665 | 0.522 | 0.946 | 0.912 | 1.03 | 0.934 | 0.953 | 1.02 | 0.983 | 0.953 | 1.02 | 0.76 | 0.895 | 0.909 | 0.919 | 0.796 | 0.819 |
| LC-2-ad | 0.486 | 0.392 | 0.485 | 0.435 | 0.612 | 0.409 | 0.435 | 0.458 | 0.462 | 0.442 | 0.506 | 0.444 | 0.445 | 0.407 | 0.282 | 0.271 | 0.263 | 0.282 | 0.276 |
| ChaGo-K-1 | 0.212 | 0.232 | 0.236 | 0.248 | 1.01 | 1.02 | 0.92 | 1.01 | 1.05 | 1.16 | 1.22 | 1.2 | 1.14 | 1.08 | 0.261 | 0.256 | 0.259 | 0.258 | 0.268 |
| COR-L 105 | 0.254 | 0.318 | 0.327 | 0.366 | 0.745 | 0.776 | 0.886 | 0.931 | 0.645 | 0.671 | 0.823 | 0.82 | 0.724 | 0.846 | 1.09 | 1.01 | 1.18 | 1.11 | 0.956 |
| NCI-H1975 | 0.865 | 0.83 | 0.764 | 0.701 | 0.978 | 1.18 | 1.17 | 0.923 | 0.835 | 0.895 | 0.867 | 0.879 | 0.806 | 0.839 | 0.303 | 0.296 | 0.292 | 0.3 | 0.286 |
| NCI-H2009 | 0.747 | 0.774 | 0.815 | 0.56 | 1.19 | 1.17 | 1.19 | 1.17 | 1.13 | 1.03 | 0.971 | 1.08 | 0.999 | 1.08 | 0.994 | 1.05 | 0.97 | 0.975 | 0.953 |
| SW 1573 | 0.194 | 0.24 | 0.188 | 0.0571 | 1.04 | 1.06 | 1.09 | 1.15 | 1.09 | 0.749 | 0.894 | 0.825 | 0.846 | 0.695 | 0.88 | 0.804 | 0.829 | 0.832 | 0.778 |
| NCI-H2347 | 0.546 | 0.504 | 0.594 | 0.558 | 0.86 | 0.684 | 0.608 | 0.771 | 0.71 | 0.752 | 0.497 | 0.582 | 0.709 | 0.738 | 0.444 | 0.411 | 0.439 | 0.441 | 0.409 |
| HCC-366 | 0.118 | 0.103 | 0.166 | 0.114 | 1.08 | 1.05 | 0.928 | 0.898 | 0.942 | 0.375 | 0.545 | 0.654 | 0.526 | 0.478 | 0.14 | 0.266 | 0.129 | 0.18 | 0.166 |
| EMC-BAC-2 | 0.279 | 0.283 | 0.323 | 0.267 | 1.14 | 1.15 | 1.13 | 1.14 | 1.08 | 0.729 | 0.727 | 0.655 | 0.643 | 0.707 | 0.439 | 0.465 | 0.432 | 0.431 | 0.488 |
| NCI-H3122 | 0.359 | 0.431 | 0.462 | 0.51 | 1.03 | 0.997 | 1.04 | 0.985 | 0.931 | 0.349 | 0.299 | 0.285 | 0.3 | 0.277 | 0.211 | 0.194 | 0.198 | 0.192 | 0.199 |
| NCI-H1944 | 0.241 | 0.22 | 0.29 | 0.257 | 0.982 | 0.983 | 0.988 | 1.05 | 1.02 | 1.09 | 1.09 | 1.14 | 1.13 | 1.1 | 0.601 | 0.593 | 0.552 | 0.695 | 0.595 |
| EPLC-272H | 0.226 | 0.215 | 0.249 | 0.191 | 1.03 | 0.981 | 0.989 | 1.12 | 1.02 | 0.944 | 0.986 | 0.869 | 0.895 | 0.822 | 0.404 | 0.303 | 0.298 | 0.341 | 0.396 |
| NCI-H1915 | 0.444 | 0.498 | 0.454 | 0.482 | 0.782 | 0.778 | 0.781 | 0.768 | 0.697 | 0.937 | 0.879 | 0.768 | 0.863 | 0.793 | 0.444 | 0.473 | 0.449 | 0.467 | 0.497 |
